The subject of this series is U937 viability, trypan blue exclusion, 24 h. The series can be described thus: U937 cell cytotoxicity, late-stage follow-up, cytotoxicity control for Cdc42 probe extension project, trypan blue exclusion (AID 651732). To be noted: at 30 µM (top of the series).

Molecules are shown by their SMILES. Activity calls are given as the source filed them.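 The calls were made as follows: active = cytotoxic compounds whose viability ratio versus DMSO control falls below 0.85 at 10 µM; inactive = the rest.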

`COc1ccc(C2CC(c3ccccc3)=NN2c2ccc(S(N)(=O)=O)cc2)cc1` (stereo unspecified): the viability ratio to DMSO was 0.19 (inactive).

These data come from PubChem BioAssay AID651732 (NMMLSC, 2012).
